From the NIST ThermoML archive (doi:10.1021/je900596d)
Numbers after ± are expanded uncertainties.

Conditions: Liquid; for mass density: Vibrating tube method

FC(F)=C(F)C(F)(F)F [hexafluoropropene]
Conditions	mass density [kg/m3]	vapor or sublimation pressure [kPa]
353.13 K, 6254.1 kPa	1084.82 ± 1.1	–
353.13 K, 6293.2 kPa	1085.83 ± 1.1	–
353.13 K, 6333.5 kPa	1086.9 ± 1.1	–
353.13 K, 6371.8 kPa	1087.85 ± 1.1	–
353.13 K, 6409 kPa	1088.79 ± 1.1	–
353.13 K, 6445.8 kPa	1089.69 ± 1.1	–
353.13 K, 6484.6 kPa	1090.62 ± 1.1	–
353.13 K, 6524.7 kPa	1091.6 ± 1.1	–
353.13 K, 6563.9 kPa	1092.58 ± 1.1	–
353.13 K, 6604.4 kPa	1093.48 ± 1.1	–
353.13 K, 6642.7 kPa	1094.43 ± 1.1	–
353.13 K, 6683.7 kPa	1095.45 ± 1.1	–
353.13 K, 6726.1 kPa	1096.44 ± 1.1	–
353.13 K, 6764 kPa	1097.33 ± 1.1	–
353.13 K, 6802.8 kPa	1098.22 ± 1.1	–
353.13 K, 6841.6 kPa	1099.15 ± 1.1	–
353.13 K, 6882 kPa	1100.04 ± 1.1	–
353.13 K, 6922.2 kPa	1101.01 ± 1.1	–
353.13 K, 6960.8 kPa	1101.88 ± 1.1	–
353.13 K, 7001.3 kPa	1102.71 ± 1.1	–
353.13 K, 7038.1 kPa	1103.6 ± 1.1	–
353.13 K, 7076.1 kPa	1104.43 ± 1.1	–
353.13 K, 7114.4 kPa	1105.3 ± 1.1	–
353.13 K, 7154.8 kPa	1106.21 ± 1.1	–
353.13 K, 7191.9 kPa	1106.87 ± 1.1	–
353.13 K, 7231.5 kPa	1107.79 ± 1.1	–
353.13 K, 7270.9 kPa	1108.59 ± 1.1	–
353.13 K, 7309.7 kPa	1109.52 ± 1.2	–
353.13 K, 7347.2 kPa	1110.31 ± 1.1	–
353.13 K, 7384.6 kPa	1111.14 ± 1.1	–
353.13 K, 7426.6 kPa	1111.94 ± 1.1	–
353.13 K, 7521.7 kPa	1113.95 ± 1.1	–
353.13 K, 7570.3 kPa	1114.91 ± 1.1	–
353.13 K, 7620.7 kPa	1116.02 ± 1.1	–
353.13 K, 7669.4 kPa	1116.98 ± 1.1	–
353.13 K, 7719.8 kPa	1117.99 ± 1.2	–
353.13 K, 7771.4 kPa	1119.1 ± 1.2	–
353.13 K, 7821.6 kPa	1120.08 ± 1.2	–
353.13 K, 7875 kPa	1121.14 ± 1.2	–
353.13 K, 7925.8 kPa	1122.03 ± 1.2	–
353.13 K, 7977.1 kPa	1123.21 ± 1.2	–
353.13 K, 8027.6 kPa	1124.05 ± 1.1	–
353.13 K, 8077.8 kPa	1124.94 ± 1.2	–
353.13 K, 8128 kPa	1125.99 ± 1.2	–
353.13 K, 8179.4 kPa	1126.95 ± 1.2	–
353.13 K, 8229.7 kPa	1127.86 ± 1.2	–
353.13 K, 8281.6 kPa	1128.88 ± 1.2	–
353.13 K, 8333.3 kPa	1129.8 ± 1.2	–
353.13 K, 8384.4 kPa	1130.91 ± 1.2	–
353.13 K, 8434.2 kPa	1131.83 ± 1.2	–
353.13 K, 8483.8 kPa	1132.74 ± 1.2	–
353.13 K, 8533 kPa	1133.6 ± 1.2	–
353.13 K, 8585.1 kPa	1134.64 ± 1.2	–
353.13 K, 8636.6 kPa	1135.48 ± 1.2	–
353.13 K, 8688.1 kPa	1136.4 ± 1.2	–
353.13 K, 8739.4 kPa	1137.27 ± 1.2	–
353.13 K, 8787.9 kPa	1138.25 ± 1.2	–
353.13 K, 8838.8 kPa	1138.97 ± 1.2	–
353.13 K, 8890.6 kPa	1140.08 ± 1.2	–
353.13 K, 8940.9 kPa	1140.78 ± 1.2	–
353.13 K, 8990.5 kPa	1141.72 ± 1.2	–
353.13 K, 9042.5 kPa	1142.55 ± 1.2	–
353.13 K, 9093.8 kPa	1143.46 ± 1.2	–
353.13 K, 9145.5 kPa	1144.29 ± 1.2	–
353.13 K, 9199.3 kPa	1145.07 ± 1.2	–
353.13 K, 9251.5 kPa	1145.95 ± 1.2	–
353.13 K, 9300.6 kPa	1146.86 ± 1.2	–
353.13 K, 9353.4 kPa	1147.68 ± 1.2	–
353.13 K, 9405.2 kPa	1148.61 ± 1.2	–
353.13 K, 9453.7 kPa	1149.26 ± 1.2	–
353.13 K, 9503.3 kPa	1150.03 ± 1.2	–
353.13 K, 9555.6 kPa	1150.83 ± 1.2	–
353.13 K, 9607.5 kPa	1151.69 ± 1.2	–
353.13 K, 9658.7 kPa	1152.54 ± 1.2	–
353.13 K, 9709.8 kPa	1153.31 ± 1.2	–
353.13 K, 9762.3 kPa	1154.19 ± 1.2	–
353.13 K, 9811.9 kPa	1154.85 ± 1.2	–
353.13 K, 9863.5 kPa	1155.62 ± 1.2	–
353.13 K, 9915.1 kPa	1156.42 ± 1.2	–
353.13 K, 9969.2 kPa	1157.38 ± 1.2	–
353.23 K, Closed cell (Static) method	–	2782.3 ± 4.9
355.18 K, 2917.9 kPa	845.6 ± 1.7	–
355.18 K, 2920.4 kPa	846.43 ± 1.7	–
355.18 K, 2923.2 kPa	847.74 ± 1.6	–
355.18 K, 2925.7 kPa	848.75 ± 1.6	–
355.18 K, 2927.7 kPa	849.49 ± 1.6	–
355.18 K, 2929.8 kPa	850.21 ± 1.6	–
355.18 K, 2931.8 kPa	850.86 ± 1.6	–
355.18 K, 2933.8 kPa	851.6 ± 1.6	–
355.18 K, 2936.9 kPa	852.8 ± 1.6	–
355.18 K, 2939.2 kPa	853.64 ± 1.6	–
355.18 K, 2941.8 kPa	854.46 ± 1.6	–
355.18 K, 2944.4 kPa	855.06 ± 1.6	–
355.18 K, 2946.6 kPa	855.85 ± 1.6	–
355.18 K, 2948.8 kPa	856.52 ± 1.6	–
355.18 K, 2952.8 kPa	857.85 ± 1.6	–
355.18 K, 2960 kPa	859.85 ± 1.5	–
355.18 K, 2967.7 kPa	861.92 ± 1.5	–
355.18 K, 2975.4 kPa	863.9 ± 1.5	–
355.18 K, 2989.1 kPa	868.46 ± 1.5	–
355.18 K, 2995.9 kPa	870.43 ± 1.5	–
355.18 K, 3004.5 kPa	872.46 ± 1.6	–
355.18 K, 3019.2 kPa	876.04 ± 1.7	–
355.18 K, 3027.3 kPa	878.11 ± 1.7	–
355.18 K, 3033.9 kPa	879.53 ± 1.7	–
355.18 K, 3039.9 kPa	880.6 ± 1.7	–
355.18 K, 3094.7 kPa	890.53 ± 1.7	–
355.18 K, 3105.5 kPa	892.47 ± 1.4	–
355.18 K, 3126.6 kPa	896.05 ± 1.4	–
355.18 K, 3136.9 kPa	897.86 ± 1.4	–
355.18 K, 3146.9 kPa	899.37 ± 1.4	–
355.18 K, 3157.8 kPa	901.09 ± 1.4	–
355.18 K, 3167.8 kPa	902.86 ± 1.4	–
355.18 K, 3178.7 kPa	904.31 ± 1.3	–
355.18 K, 3189.5 kPa	906.01 ± 1.3	–
355.18 K, 3200.1 kPa	907.48 ± 1.3	–
355.18 K, 3210.7 kPa	909 ± 1.3	–
355.18 K, 3221.2 kPa	910.46 ± 1.3	–
355.18 K, 3231.6 kPa	911.83 ± 1.3	–
355.18 K, 3252.1 kPa	914.62 ± 1.3	–
355.18 K, 3263.1 kPa	916.04 ± 1.2	–
355.18 K, 3273.1 kPa	917.41 ± 1.3	–
355.18 K, 3283.4 kPa	918.63 ± 1.2	–
355.18 K, 3294.3 kPa	920.14 ± 1.2	–
355.18 K, 3304.3 kPa	921.35 ± 1.2	–
355.18 K, 3325.4 kPa	923.75 ± 1.2	–
355.18 K, 3347.5 kPa	926.36 ± 1.2	–
355.18 K, 3368.1 kPa	928.74 ± 1.2	–
355.18 K, 3388.8 kPa	930.98 ± 1.2	–
355.18 K, 3410.2 kPa	933.28 ± 1.2	–
355.18 K, 3453.4 kPa	937.53 ± 1.2	–
355.18 K, 3496.3 kPa	941.66 ± 1.2	–
355.18 K, 3516.9 kPa	943.53 ± 1.2	–
